# Reference: patent US7781565B2 (priority 2006, dated 2010)
# “Also recorded” adds a separate entry of the source.
# Tested on: NCI-60 cell lines
# Assay type: cell-based, human
Substance,Cell Line (NCI-60 cell line the peptide and its motif are associated with),Cell Line (NCI-60 cell line the peptide is associated with),Cell Line the peptide is associated with (peptide recovered from phage library selection on this NCI-60 cell line),Cell Line with which the peptide (and its tripeptide motif) is associated
RLWGSVV,SK-OV-3-3 Ovarian,,,
RMGFGLR,,LOX-IMVI Melanoma,,
RMGLLRQ,M14 Melanoma,,,
RMLVSSF,UACC 257 Melanoma,,,
RNPGRLA,,HT-29 Colon,,
RNSRAGL,,,UO31 Renal,
RPAGGRT,PC3 Prostate,,,
RPARGAF,,,ACHN Renal,
RPKLRSV,,MALME-3M Melanoma,,
RPWGAVA,SK-OV-3-3 Ovarian,,,
RQDGGLY,PC3 Prostate,,,
RQKCGGL,,HT-29 Colon,,
RQLVSPA,,HT-29 Colon,,
RQTTGAV,,,,K-562-Leukemia
RRAGGSV,OVCAR-5 Ovarian,,,
RRARGAC,,SNB-75 CNS,,
RRDAGRM,,SF-295 CNS,,
RRDGLVE,786-0 Renal,,,
RREGLRS,OVCAR-3 Ovarian,,,H522-Lung
RRFWAGL,,,,H460-Lung
RRGLGDA,,,TK-10 Renal,
RRGSGGL,,,,H23-Lung

Substance,Cell Line (NCI-60 cell line the peptide and its motif are associated with),Cell Line (NCI-60 cell line the peptide is associated with),Cell Line the peptide is associated with (peptide recovered from phage library selection on this NCI-60 cell line),Cell Line with which the peptide (and its tripeptide motif) is associated
RRGSLMF,,SW620-Colon,,
RRGSSRN,,,,SR Leukemia
RRGSVAE,,,HS 578 T Breast,
RRHGLLS,,,,K-562-Leukemia
RRLSSIA,,,TK-10 Renal,
RRLSYFH,,HT-29 Colon,,
RRLSYHS,M14 Melanoma; also recorded: OVCAR-3 Ovarian,,,
RRLSYRD,,,,RPMI-8226-Leukemia
RRLSYRE,OVCAR-8 Ovarian,,,
RRPGLRS,,HT-29 Colon,,
RRSGAGG,,,UO31 Renal,
RRSGLGD,,HCC-2998-Colon,,
RRSSKQA,,,,A549-Lung
RRVSCDL,,,,Hop-62-Lung
RRVSLVA,,,,CCRF-CEM Leukemia
RSGRVSN,SK-OV-3-3 Ovarian,,,
RSGSSVY,,,,H23-Lung
RSLGSVG,DU-145 Prostate,,,
RSSGLGF,,,,Hop-62-Lung
RSSIAPS,,,,Molt-4-Leukemia
RSSIDVG,,,NCI/ADR-RES Breast,
RSSLGLP,,,,H226-Lung

Substance,Cell Line (NCI-60 cell line the peptide and its motif are associated with),Cell Line (NCI-60 cell line the peptide is associated with),Cell Line the peptide is associated with (peptide recovered from phage library selection on this NCI-60 cell line),Cell Line with which the peptide (and its tripeptide motif) is associated
RSSPVWT,,SW620-Colon,,
RSSSGSG,,,TK-10 Renal,
RSSSSTR,,SNB-75 CNS,,
RSSYAPP,,,ACHN Renal,
RSTLGPS,,HT-29 Colon,,
RSWNAGR,,,UO31 Renal,
RSYPLRS,,SW620-Colon,,
RTGSSDL,,,,Hop-92-Lung
RTWGGRM,M14 Melanoma,,,
RVAAGGL,,,T-47D Breast,
RVARGDR,,KM-12C Colon,,
RVDRGSL,,,CAIK-1 Renal,
RVEAAVP,SK-OV-3-3 Ovarian,,,
RVGAGAF,SK-OV-3-3 Ovarian,,,
RVGAGWP,,,BT-549 Breast,
RVGRGVL,,SF-268 CNS,,
RVGRLGG,,,,A549-Lung
RVGSVQW,,KM-12C Colon,,
RVGTLRV,SK-OV-3-3 Ovarian,,,
RVMRGSL,,,MCF-7 Breast,
RVPTGVR,,,SN12C Renal,
RVRAVLG,SK-MEL-28 Melanoma,,,

Substance,Cell Line (NCI-60 cell line the peptide and its motif are associated with),Cell Line (NCI-60 cell line the peptide is associated with),Cell Line the peptide is associated with (peptide recovered from phage library selection on this NCI-60 cell line),Cell Line with which the peptide (and its tripeptide motif) is associated
RVRGVLD,,,BT-549 Breast,
RVRSSLA,,,HS 578 T Breast,
RVSGDGK,SK-OV-3-3 Ovarian,,,
RVSGSPV,,,NCI/ADR-RES Breast,
RVSNEAL,SK-OV-3-3 Ovarian,,,
RVSRAGG,PC3 Prostate,,,
RVSSDPI,SK-OV-3-3 Ovarian,,,
RVSSETF,A498 Renal,,,
RVVGAVL,,,ACHN Renal,
RWAGLVA,,SF-295 CNS,,
RWLSLLS,,MALME-3M Melanoma,,
RWRSGRV,,HT-29 Colon,,
RYGTAGS,,,SN12C Renal,
RYGVGGL,,HT-29 Colon,,
RYRVSVY,,KM-12C Colon,,
RYSMASL,SK-MEL-5 Melanoma,,,
RYSTLLR,,,,K-562-Leukemia
SAAGLAR,SK-OV-3-3 Ovarian,,,
SAAGRTF,SK-MEL-2 Melanoma,,,
SAGGWCA,,LOX-IMVI Melanoma,,
SAGLLPS,OVCAR-5 Ovarian,,,
SAGSHPA,,,SN12C Renal,

Substance,Cell Line (NCI-60 cell line the peptide and its motif are associated with),Cell Line (NCI-60 cell line the peptide is associated with),Cell Line the peptide is associated with (peptide recovered from phage library selection on this NCI-60 cell line),Cell Line with which the peptide (and its tripeptide motif) is associated
SAGVSDS,SK-MEL-2 Melanoma,,,
SALRVGL,,,BT-549 Breast,
SARLSHV,UACC 257 Melanoma,,,
SARQGGR,M14 Melanoma,,,
SAVSESP,SK-OV-3-3 Ovarian,,,
SDENGRL,,,,HL-60-Leukemia
SDLGLRR,DU-145 Prostate,,,
SDRGLVV,,HCT-15 Colon,,
SDVSGSS,,,,H322-Lung
SEDEGAG,,,,H322-Lung
SELRSIR,,COLO-205-Colon,,
SEQRGGL,,,ACHN Renal,
SERSSLG,,,,Hop-92-Lung
SFAGRIL,,,T-47D Breast,
SFGVLSG,,,HS 578 T Breast,
SFWWLRS,,,TK-10 Renal,
SGAGAAF,786-0 Renal,,,
SGAGSVS,OVCAR-5 Ovarian,,,
SGARLRS,,,T-47D Breast,
SGGAVHF,,,,SR Leukemia
SGGDGSV,,SNB-75 CNS,,
SGGGGLG,,SF-268 CNS,,

Substance,Cell Line (NCI-60 cell line the peptide and its motif are associated with),Cell Line (NCI-60 cell line the peptide is associated with),Cell Line the peptide is associated with (peptide recovered from phage library selection on this NCI-60 cell line),Cell Line with which the peptide (and its tripeptide motif) is associated
SGGLAVA,UACC 257 Melanoma,,,
SGGLHEG,,,,SR Leukemia
SGGLVLT,,,,Hop-92-Lung
SGGRFVP,,,MDA-MB-231 Breast,
SGGSVGF,,,MDA-MB-231 Breast,
SGHGVSA,,,,H23-Lung
SGIGSGG,,,,Hop-92-Lung
SGLVAMV,,SW620-Colon,,
SGPAGSF,OVCAR-4 Ovarian,,,
SGPGRLP,M14 Melanoma,,,
SGRLWVG,,,RXF393 Renal,
SGRVFRF,,,HS 578 T Breast,
SGSGCVF,PC3 Prostate,,,
SGSRVSL,,,,HL-60-Leukemia
SGSSVRY,,SNB-75 CNS,,
SGSVNRG,,,,RPMI-8226-Leukemia
SGSVVQR,,LOX-IMVI Melanoma,,
SGVGGRY,UACC 257 Melanoma,,,
SGVGSSL,,,,EKVX-Lung
SGVRLTG,,HT-29 Colon,,
SGVRPVI,SK-MEL-2 Melanoma,,,
SGVSGLS,,,,EKVX-Lung
